Results taken from patent US20230265151A1, “GIP/GLP1 CO-AGONIST COMPOUNDS” (priority 2020, published 2023).
Where two headings read alike, the source gives them in different places.

What was measured:
Format in all cases: cell-based
hGLP-1R = hGLP-1R (Homo sapiens, UniProt P43220); assay: Functional cAMP formation (HTRF) in HEK-293 clonal cells expressing hGLP-1R, 0.1% bovine casein, without or with 1.0% human serum albumin; set-up: expressed in transfected cells; settings: for Emax: 37° C., read-out: hGLP-1R Emax, % ± SEM; for EC50: cAMP, incubated at 37° C., 0.1% bovine casein (no human serum albumin), geometric mean, read-out: hGLP-1R EC50, nM (SEM, n)
hGLP-1R, sequence (P43220 24-463): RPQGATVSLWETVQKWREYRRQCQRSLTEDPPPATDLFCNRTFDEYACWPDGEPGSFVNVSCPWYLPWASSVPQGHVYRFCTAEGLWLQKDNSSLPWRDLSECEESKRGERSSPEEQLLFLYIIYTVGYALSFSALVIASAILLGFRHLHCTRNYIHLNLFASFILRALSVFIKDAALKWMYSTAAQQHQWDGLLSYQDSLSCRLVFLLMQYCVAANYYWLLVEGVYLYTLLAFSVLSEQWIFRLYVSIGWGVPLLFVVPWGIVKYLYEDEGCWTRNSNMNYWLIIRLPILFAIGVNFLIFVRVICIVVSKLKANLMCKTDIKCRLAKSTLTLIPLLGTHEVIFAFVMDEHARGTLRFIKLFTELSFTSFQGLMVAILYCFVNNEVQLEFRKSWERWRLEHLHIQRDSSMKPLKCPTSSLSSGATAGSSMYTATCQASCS
How it was run: (§1)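 Cells were stimulated with peptide for 30 min at 37° C, then intracellular cAMP was measured by competitive HTRF (665/620 nm ratio) and converted to nM using a cAMP standard curve. Relative EC50 and Emax came from four-parameter logistic fits of percent maximal response against peptide concentration.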

hGIPR = biological target: T1, hGIPR (Homo sapiens, UniProt P48546); assay: Functional cAMP formation (HTRF) in HEK-293 clonal cells expressing hGIPR, 0.1% bovine casein, without or with 1.0% human serum albumin; settings: for Emax: read-out: hGIPR Emax, % ± SEM; for EC50: geometric mean, read-out: hGIPR EC50, nM (SEM, n)
T1 construct: expressed in transfected cells
T1 sequence (P48546 22-466): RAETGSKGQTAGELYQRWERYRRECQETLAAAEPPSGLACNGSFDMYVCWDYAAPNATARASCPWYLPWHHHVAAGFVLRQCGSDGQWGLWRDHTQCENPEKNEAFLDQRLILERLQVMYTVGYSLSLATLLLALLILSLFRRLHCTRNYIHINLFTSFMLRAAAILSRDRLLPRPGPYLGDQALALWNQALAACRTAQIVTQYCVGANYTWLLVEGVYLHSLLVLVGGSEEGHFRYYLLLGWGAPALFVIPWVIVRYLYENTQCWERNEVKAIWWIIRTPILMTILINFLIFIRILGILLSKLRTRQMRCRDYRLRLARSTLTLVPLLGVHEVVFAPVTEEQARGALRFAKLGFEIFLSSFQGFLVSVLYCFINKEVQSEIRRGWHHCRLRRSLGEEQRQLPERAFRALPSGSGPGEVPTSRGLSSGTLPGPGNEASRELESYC
How it was run: as §1

hGCGR = biological target: T2, hGCGR (Homo sapiens, UniProt P47871); assay: Functional cAMP formation (HTRF) in HEK-293 clonal cells expressing hGCGR, 0.1% bovine casein, without or with 1.0% human serum albumin; settings: geometric mean, read-out: hGCGR EC50, nM (SEM, n)
T2 construct: expressed in transfected cells
T2 sequence (P47871 26-477): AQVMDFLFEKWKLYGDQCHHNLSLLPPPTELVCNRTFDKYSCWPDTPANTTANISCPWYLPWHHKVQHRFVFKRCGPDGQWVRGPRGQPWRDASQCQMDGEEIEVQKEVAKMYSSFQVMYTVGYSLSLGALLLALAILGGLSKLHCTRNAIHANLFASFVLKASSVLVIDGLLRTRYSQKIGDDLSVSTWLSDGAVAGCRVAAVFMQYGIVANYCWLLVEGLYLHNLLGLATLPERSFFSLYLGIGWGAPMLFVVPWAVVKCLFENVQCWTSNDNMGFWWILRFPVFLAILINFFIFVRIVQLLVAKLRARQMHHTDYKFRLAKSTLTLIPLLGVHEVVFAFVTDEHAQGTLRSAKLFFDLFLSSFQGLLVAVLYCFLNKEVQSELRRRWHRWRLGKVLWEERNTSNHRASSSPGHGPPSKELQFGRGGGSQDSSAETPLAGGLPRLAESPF
How it was run: as §1

[1] = HEK293, 0.1% bovine casein and 1.0% human serum albumin, percent of maximal response to GLP-1(7-36)NH2
[2] = HEK293, percent of maximal response to GLP-1(7-36)NH2, 0.1% bovine casein, arithmetic mean
[3] = HEK293, 0.1% bovine casein and 1.0% human serum albumin, 37° C., percent of maximal response to GIP(1-42)NH2
[4] = HEK293, percent of maximal response to GIP(1-42)NH2, 37° C., 0.1% bovine casein, arithmetic mean
[5] = cAMP, incubated at 37° C., 0.1% bovine casein (no human serum albumin)
[6] = 0.1% bovine casein and 1.0% human serum albumin, 37° C.

| Structure (SMILES) | Emax (hGLP-1R; [1]) [%] | Emax (hGLP-1R; [2]) [%] | EC50 (hGLP-1R) [nM] | Emax (hGIPR; [3]) [%] | Emax (hGIPR; [4]) [%] | EC50 (hGIPR; [5]) [nM] | EC50 (hGCGR; [6]) [nM] | EC50 (hGCGR; [5]) [nM] | EC50 (hGIPR; [6]) [nM] |
| --- | --- | --- | --- | --- | --- | --- | --- | --- | --- |
| CC[C@H](C)[C@H](NC(=O)[C@H](CC(C)C)NC(=O)[C@](C)(Cc1ccc(O)cc1)NC(=O)[C@@H](CCC(=O)O)NC(=O)[C@@H](NC(=O)[C@](C)(Cc1ccccc1)NC(=O)[C@H](CCC(=O)O)NC(=O)C(C)(C)NC(=O)[C@H](CCC(N)=O)NC(=O)[C@H](C)NC(=O)[C@H](CCCCNC(=O)COCCOCCNC(=O)COCCOCCNC(=O)CC[C@H](NC(=O)CCCCCCCCCCCCC(=O)O)C(=O)O)NC(=O)[C@H](CCCN)NC(=O)[C@H](CC(=O)O)NC(=O)[C@H](CC(C)C)NC(=O)[C@](C)(CC(C)C)NC(=O)[C@@H](NC(=O)[C@H](CO)NC(=O)C1(NC(=O)[C@H](CC(=O)O)NC(=O)[C@H](CO)NC(=O)[C@@H](NC(=O)[C@](C)(Cc2ccccc2F)NC(=O)[C@@H](NC(=O)CNC(=O)[C@H](CCC(=O)O)NC(=O)C(C)(C)NC(=O)[C@@H](N)Cc2ccc(O)cc2)[C@@H](C)O)[C@@H](C)O)CCCC1)[C@@H](C)CC)[C@@H](C)CC)C(=O)N[C@@H](CCC(=O)O)C(=O)NCC(=O)NCC(=O)N[C@@H](CCCCNC(=O)COCCOCCNC(=O)COCCOCCNC(=O)CC[C@H](NC(=O)CCCCCCCCCCCCC(=O)O)C(=O)O)C(=O)N[C@@H](CO)C(=O)N[C@@H](CO)C(=O)NCC(=O)N[C@@H](C)C(=O)N1CCC[C@H]1C(=O)N1CCC[C@H]1C(=O)N1CCC[C@H]1C(=O)N[C@@H](CO)C(N)=O [Example 94] | 113 | 97.4 | 2.1 | 97.1 | 91 | 0.0132 | > 9950 | > 9950 | – |
| CC[C@H](C)[C@H](NC(=O)[C@H](CC(C)C)NC(=O)[C@](C)(Cc1ccc(O)cc1)NC(=O)[C@@H](CCC(=O)O)NC(=O)[C@@H](NC(=O)[C@H](Cc1ccccc1)NC(=O)[C@H](CCC(=O)O)NC(=O)C(C)(C)NC(=O)[C@H](CCC(N)=O)NC(=O)[C@H](C)NC(=O)[C@H](CCCCNC(=O)COCCOCCNC(=O)COCCOCCNC(=O)CC[C@H](NC(=O)CCCCCCCCCCCCC(=O)O)C(=O)O)NC(=O)[C@H](CCCN)NC(=O)[C@H](CC(=O)O)NC(=O)[C@H](CC(C)C)NC(=O)[C@](C)(CC(C)C)NC(=O)[C@@H](NC(=O)[C@H](CO)NC(=O)C1(NC(=O)[C@H](CC(=O)O)NC(=O)[C@H](CO)NC(=O)[C@@H](NC(=O)[C@](C)(Cc2ccccc2F)NC(=O)[C@@H](NC(=O)CNC(=O)[C@H](CCC(=O)O)NC(=O)C(C)(C)NC(=O)[C@@H](N)Cc2ccc(O)cc2)[C@@H](C)O)[C@@H](C)O)CCC1)[C@@H](C)CC)[C@@H](C)CC)C(=O)N[C@@H](CCC(=O)O)C(=O)NCC(=O)NCC(=O)N[C@@H](CCCCNC(=O)COCCOCCNC(=O)COCCOCCNC(=O)CC[C@H](NC(=O)CCCCCCCCCCCCC(=O)O)C(=O)O)C(=O)N[C@@H](CO)C(=O)N[C@@H](CO)C(=O)NCC(=O)N[C@@H](C)C(=O)N1CCC[C@H]1C(=O)N1CCC[C@H]1C(=O)N1CCC[C@H]1C(=O)N[C@@H](CO)C(N)=O [Example 95] | 84 | 86.9 | – | 86.9 | 97.3 | – | > 9950 | > 9950 | 4.68 |
| CC[C@H](C)[C@H](NC(=O)[C@H](CC(C)C)NC(=O)[C@](C)(Cc1ccc(O)cc1)NC(=O)[C@@H](CCC(=O)O)NC(=O)[C@@H](NC(=O)[C@H](Cc1ccccc1)NC(=O)[C@H](CCC(=O)O)NC(=O)C(C)(C)NC(=O)[C@H](CCC(N)=O)NC(=O)[C@H](C)NC(=O)[C@H](CCCCNC(=O)COCCOCCNC(=O)COCCOCCNC(=O)CC[C@H](NC(=O)CCCCCCCCCCCCC(=O)O)C(=O)O)NC(=O)[C@H](CCCN)NC(=O)[C@H](CC(=O)O)NC(=O)[C@H](CC(C)C)NC(=O)[C@](C)(CC(C)C)NC(=O)[C@@H](NC(=O)[C@H](CO)NC(=O)[C@H](CC1CCCCC1)NC(=O)[C@H](CC(=O)O)NC(=O)[C@H](CO)NC(=O)[C@@H](NC(=O)[C@](C)(Cc1ccccc1F)NC(=O)[C@@H](NC(=O)CNC(=O)[C@H](CCC(=O)O)NC(=O)C(C)(C)NC(=O)[C@@H](N)Cc1ccc(O)cc1)[C@@H](C)O)[C@@H](C)O)[C@@H](C)CC)[C@@H](C)CC)C(=O)N[C@@H](CCC(=O)O)C(=O)NCC(=O)NCC(=O)N[C@@H](CCCCNC(=O)COCCOCCNC(=O)COCCOCCNC(=O)CC[C@H](NC(=O)CCCCCCCCCCCCC(=O)O)C(=O)O)C(=O)N[C@@H](CO)C(=O)N[C@@H](CO)C(=O)NCC(=O)N[C@@H](C)C(=O)N1CCC[C@H]1C(=O)N1CCC[C@H]1C(=O)N1CCC[C@H]1C(=O)N[C@@H](CO)C(N)=O [Example 98] | 97.5 | – | 0.227 | 95 | 97.7 ± 2.54 | 0.0148 | > 9950 | > 9950 | – |
| CC[C@H](C)[C@H](NC(=O)[C@H](CC(C)C)NC(=O)[C@](C)(Cc1ccc(O)cc1)NC(=O)[C@@H](CCC(=O)O)NC(=O)[C@@H](NC(=O)[C@H](Cc1ccc2ccccc2c1)NC(=O)[C@H](CCC(=O)O)NC(=O)C(C)(C)NC(=O)[C@H](CCC(N)=O)NC(=O)[C@H](C)NC(=O)[C@H](CCCCNC(=O)COCCOCCNC(=O)COCCOCCNC(=O)CC[C@H](NC(=O)CCCCCCCCCCCCC(=O)O)C(=O)O)NC(=O)[C@H](CCCN)NC(=O)[C@H](CC(=O)O)NC(=O)[C@H](CC(C)C)NC(=O)[C@](C)(CC(C)C)NC(=O)[C@@H](NC(=O)[C@H](CO)NC(=O)[C@H](Cc1ccncc1)NC(=O)[C@H](CC(=O)O)NC(=O)[C@H](CO)NC(=O)[C@@H](NC(=O)[C@](C)(Cc1ccccc1F)NC(=O)[C@@H](NC(=O)CNC(=O)[C@H](CCC(=O)O)NC(=O)C(C)(C)NC(=O)[C@@H](N)Cc1ccc(O)cc1)[C@@H](C)O)[C@@H](C)O)[C@@H](C)CC)[C@@H](C)CC)C(=O)N[C@@H](CCC(=O)O)C(=O)NCC(=O)NCC(=O)N[C@@H](CCCCNC(=O)COCCOCCNC(=O)COCCOCCNC(=O)CC[C@H](NC(=O)CCCCCCCCCCCCC(=O)O)C(=O)O)C(=O)N[C@@H](CO)C(=O)N[C@@H](CO)C(=O)NCC(=O)N[C@@H](C)C(=O)N1CCC[C@H]1C(=O)N1CCC[C@H]1C(=O)N1CCC[C@H]1C(=O)N[C@@H](CO)C(N)=O [Example 99] | 81.1 | – | – | – | 93.4 ± 1.02 | – | > 9950 | > 9950 | – |
